Experimental data reported in article PMC5814560, “6-Thioguanine is a noncompetitive and slow binding inhibitor of human deubiquitinating protease USP2” (Scientific Reports, 2018).

What was measured:
[1] = molecular target: T1, USP2 (ubiquitin-specific protease 2) (Homo sapiens, UniProt O75604); test: Ub-AFC deubiquitination kinetics, noncompetitive fit; very weak, called ineffective by the authors; assay type: biochemical; set-up: catalytic domain, residues 258–605; conditions: read-out: Kis
Target sequence in this assay (O75604 258-605): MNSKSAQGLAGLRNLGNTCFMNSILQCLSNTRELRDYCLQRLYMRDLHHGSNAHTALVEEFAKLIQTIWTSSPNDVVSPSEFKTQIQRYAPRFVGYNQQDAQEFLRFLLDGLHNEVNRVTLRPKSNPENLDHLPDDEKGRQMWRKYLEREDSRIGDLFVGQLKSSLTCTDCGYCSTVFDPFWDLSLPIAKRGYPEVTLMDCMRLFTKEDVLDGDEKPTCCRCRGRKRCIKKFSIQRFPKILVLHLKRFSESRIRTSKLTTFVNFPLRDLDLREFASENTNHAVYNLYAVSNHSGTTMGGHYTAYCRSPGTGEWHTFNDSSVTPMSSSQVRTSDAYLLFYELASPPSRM

[2] = molecular target: T1, USP2 (ubiquitin-specific protease 2); test: X-ray crystal structure (soak, […] Å, about […] occupancy); Ub-AFC deubiquitination kinetics (Kis […], IC50 […]); assay type: biochemical; set-up: catalytic domain, residues 258–605; with ubiquitin (Ub) in the crystal
Target sequence in this assay (O75604 258-605, other chains not shown): as the sequence (O75604 258-605) above

| Structure (SMILES) | Ki [1] [µM] | Ki [2] [µM] |
| --- | --- | --- |
| Sc1ncnc2nc[nH]c12 [6MP, 6-mercaptopurine] | 349 ± 23.7 | – |
| Nc1nc2nc[nH]c2c(=S)[nH]1 [6TG, 6-thioguanine] | – | 24.6 ± 1.8 |
